Assays:
FAK autophosphorylation = FAK autophosphorylation immunoblot; type: cell-based; settings: at the concentrations used
[1] = tested on: tyrosine phosphorylated FER in H1155 cells; test: pY immunoprecipitation of FER; type: cell-based; settings: 3 hours, 1 μM
MEK2 = settings: read-out: IC50 MEK2; second value of MEK1/2 pair; ref Yamaguchi et al., 2011; cited from earlier work
[2] = tested on: SRC autophosphorylation at Y419 in H1155 cells; test: SRC autophosphorylation at Y419; type: cell-based; settings: data not shown
A427 cells = test: crystal violet clonogenic assay; type: cell-based; settings: 10 days
FER = FER (Homo sapiens, UniProt P16591); test: in vitro kinase assay FER; type: biochemical; settings: 10 μM ATP; compared with cabozantinib
[3] = tested on: histone H3 at S10 (downstream target of AURKB); test: Western blot of pH3; type: cell-based; settings: H1155 cells, 6 hours, 0.05, 0.25 and 0.5 μM
AURKA = biological target: T1, AURKA (Homo sapiens, UniProt O14965); test: in vitro kinase assay AURKA; type: biochemical; settings: 10 μM ATP; compared with cabozantinib
T1 sequence (O14965 1-403): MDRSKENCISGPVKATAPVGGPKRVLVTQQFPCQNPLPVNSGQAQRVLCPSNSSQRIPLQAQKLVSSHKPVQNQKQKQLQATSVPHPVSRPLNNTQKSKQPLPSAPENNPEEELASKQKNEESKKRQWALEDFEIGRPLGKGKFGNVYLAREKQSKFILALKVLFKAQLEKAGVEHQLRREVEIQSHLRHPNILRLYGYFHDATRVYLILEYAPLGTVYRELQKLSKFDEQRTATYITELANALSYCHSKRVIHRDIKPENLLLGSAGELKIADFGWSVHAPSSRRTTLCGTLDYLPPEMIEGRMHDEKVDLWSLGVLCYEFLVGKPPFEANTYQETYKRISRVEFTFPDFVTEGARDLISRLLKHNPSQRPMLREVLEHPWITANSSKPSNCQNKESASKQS

SRC = SRC (Homo sapiens, UniProt P12931); test: in vitro kinase assay SRC; type: biochemical; settings: 10 μM ATP; compared with cabozantinib
H1155 and A427 cells [4] = test: cell cycle analysis; type: cell-based; settings: 6 hours
NSCLC cell lines = test: viability-based drug screen and dose response; settings: 72 hours treatment; screen at 0.5 μM and 2.5 μM, confirmed in 14 NSCLC cell lines
SCLC cell lines = test: viability of SCLC cell lines; type: cell-based; settings: 72 hours treatment
H1155 and A427 cells [5] = type: cell-based; settings: 0.5 μM and 1 μM, 24 hours (blot), 24 and 48 hours (imaging)
MEK1 = MEK1 (Homo sapiens, UniProt Q02750); test: in vitro kinase assay MEK1; type: biochemical; settings: 10 μM ATP; compared with cabozantinib
AURKB = AURKB (Homo sapiens, UniProt Q96GD4); test: in vitro kinase assay AURKB; type: biochemical; settings: 10 μM ATP; compared with cabozantinib
[6] = tested on: pERK at T202/Y204 (substrate sites of MEK1/2); test: Western blot of pERK; type: cell-based; settings: H1155 and A427 cells; 1 hour; 0.1, 0.5 and 1 μM
H1155 cells = test: H1155 cell viability with tool compounds alone or combined; type: cell-based; settings: compared to AURKB inhibition
[7] = tested on: MET autophosphorylation in H1648 cells
MET = MET (Homo sapiens, UniProt P08581); test: pulldowns with H1648 lysate and in vitro MET kinase assays of probes; type: biochemical
Chain of MET (P08581 25-1390): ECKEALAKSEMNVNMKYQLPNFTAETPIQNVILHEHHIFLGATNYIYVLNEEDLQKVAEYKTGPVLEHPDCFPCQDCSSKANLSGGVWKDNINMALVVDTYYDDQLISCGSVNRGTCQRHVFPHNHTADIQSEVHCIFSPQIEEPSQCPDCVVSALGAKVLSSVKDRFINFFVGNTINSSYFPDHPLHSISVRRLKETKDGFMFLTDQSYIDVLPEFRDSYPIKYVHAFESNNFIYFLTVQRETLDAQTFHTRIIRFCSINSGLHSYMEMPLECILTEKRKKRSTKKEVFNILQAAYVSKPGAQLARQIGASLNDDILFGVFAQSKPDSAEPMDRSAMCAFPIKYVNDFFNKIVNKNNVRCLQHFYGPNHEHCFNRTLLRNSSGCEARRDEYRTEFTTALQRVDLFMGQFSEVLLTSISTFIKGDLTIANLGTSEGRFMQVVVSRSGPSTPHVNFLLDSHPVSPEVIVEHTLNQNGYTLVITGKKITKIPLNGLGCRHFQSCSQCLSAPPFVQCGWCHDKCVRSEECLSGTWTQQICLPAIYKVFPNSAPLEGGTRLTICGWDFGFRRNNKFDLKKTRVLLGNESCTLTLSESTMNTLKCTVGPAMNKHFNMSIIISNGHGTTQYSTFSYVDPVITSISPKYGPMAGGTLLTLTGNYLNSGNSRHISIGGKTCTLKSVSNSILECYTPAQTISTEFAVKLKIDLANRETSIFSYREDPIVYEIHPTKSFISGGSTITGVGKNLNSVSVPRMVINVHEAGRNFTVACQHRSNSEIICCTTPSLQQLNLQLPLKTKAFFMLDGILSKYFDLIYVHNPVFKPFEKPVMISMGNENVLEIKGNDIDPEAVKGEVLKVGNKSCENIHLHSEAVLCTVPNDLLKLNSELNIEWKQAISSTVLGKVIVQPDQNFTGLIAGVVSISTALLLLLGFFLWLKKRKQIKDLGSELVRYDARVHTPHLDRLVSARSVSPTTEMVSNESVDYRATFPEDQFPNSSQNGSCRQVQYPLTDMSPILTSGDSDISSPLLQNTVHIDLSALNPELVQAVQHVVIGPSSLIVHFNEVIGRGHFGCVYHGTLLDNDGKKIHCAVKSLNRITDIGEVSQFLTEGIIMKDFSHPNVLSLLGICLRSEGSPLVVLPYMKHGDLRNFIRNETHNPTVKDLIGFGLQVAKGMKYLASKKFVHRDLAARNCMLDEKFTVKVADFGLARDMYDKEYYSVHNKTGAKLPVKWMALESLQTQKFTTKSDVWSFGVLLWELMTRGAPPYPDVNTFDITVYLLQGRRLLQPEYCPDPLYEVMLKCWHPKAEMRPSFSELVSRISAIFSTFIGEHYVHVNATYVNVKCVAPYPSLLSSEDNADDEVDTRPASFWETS

Chain of AURKB (Q96GD4 whole entry): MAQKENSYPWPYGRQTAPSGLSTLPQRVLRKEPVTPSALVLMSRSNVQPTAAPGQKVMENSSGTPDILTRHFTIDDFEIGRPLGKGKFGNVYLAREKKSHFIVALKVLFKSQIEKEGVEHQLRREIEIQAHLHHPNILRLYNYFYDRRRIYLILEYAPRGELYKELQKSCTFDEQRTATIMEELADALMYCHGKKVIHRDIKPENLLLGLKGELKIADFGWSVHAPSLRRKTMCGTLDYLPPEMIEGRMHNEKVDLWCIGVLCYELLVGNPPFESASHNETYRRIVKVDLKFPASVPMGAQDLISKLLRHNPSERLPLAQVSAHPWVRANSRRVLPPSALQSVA
Chain of FER (P16591 whole entry): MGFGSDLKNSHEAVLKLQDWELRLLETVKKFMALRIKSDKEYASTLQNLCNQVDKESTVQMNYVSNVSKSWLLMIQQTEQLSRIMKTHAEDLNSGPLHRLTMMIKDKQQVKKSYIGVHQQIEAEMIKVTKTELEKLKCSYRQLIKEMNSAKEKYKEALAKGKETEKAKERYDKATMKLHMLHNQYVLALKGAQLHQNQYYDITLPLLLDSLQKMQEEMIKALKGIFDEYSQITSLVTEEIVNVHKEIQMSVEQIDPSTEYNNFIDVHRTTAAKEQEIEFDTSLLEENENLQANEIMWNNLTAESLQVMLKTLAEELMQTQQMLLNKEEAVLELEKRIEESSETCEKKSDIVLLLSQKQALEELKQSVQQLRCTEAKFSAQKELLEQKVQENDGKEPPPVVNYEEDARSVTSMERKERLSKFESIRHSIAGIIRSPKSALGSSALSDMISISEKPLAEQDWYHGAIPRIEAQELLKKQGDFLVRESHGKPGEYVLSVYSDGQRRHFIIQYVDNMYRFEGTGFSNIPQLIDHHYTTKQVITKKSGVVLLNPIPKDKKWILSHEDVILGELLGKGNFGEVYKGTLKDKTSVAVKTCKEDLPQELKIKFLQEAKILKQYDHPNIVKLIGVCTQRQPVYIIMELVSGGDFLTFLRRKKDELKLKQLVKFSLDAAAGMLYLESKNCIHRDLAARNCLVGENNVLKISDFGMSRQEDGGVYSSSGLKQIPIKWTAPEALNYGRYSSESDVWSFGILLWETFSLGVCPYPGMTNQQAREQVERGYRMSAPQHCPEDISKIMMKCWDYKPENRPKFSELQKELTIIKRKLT
Chain of MEK1 (Q02750 whole entry): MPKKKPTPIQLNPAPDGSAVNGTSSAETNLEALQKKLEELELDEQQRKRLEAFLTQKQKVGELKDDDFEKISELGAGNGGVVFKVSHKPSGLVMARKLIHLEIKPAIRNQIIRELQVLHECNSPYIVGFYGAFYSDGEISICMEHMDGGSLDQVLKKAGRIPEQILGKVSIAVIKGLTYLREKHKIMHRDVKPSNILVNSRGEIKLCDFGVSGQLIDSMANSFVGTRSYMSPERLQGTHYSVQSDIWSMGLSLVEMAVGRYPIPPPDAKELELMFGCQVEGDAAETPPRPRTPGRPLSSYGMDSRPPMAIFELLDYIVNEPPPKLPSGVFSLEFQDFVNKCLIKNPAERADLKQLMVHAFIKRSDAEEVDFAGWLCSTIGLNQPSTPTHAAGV
Chain of SRC (P12931 whole entry): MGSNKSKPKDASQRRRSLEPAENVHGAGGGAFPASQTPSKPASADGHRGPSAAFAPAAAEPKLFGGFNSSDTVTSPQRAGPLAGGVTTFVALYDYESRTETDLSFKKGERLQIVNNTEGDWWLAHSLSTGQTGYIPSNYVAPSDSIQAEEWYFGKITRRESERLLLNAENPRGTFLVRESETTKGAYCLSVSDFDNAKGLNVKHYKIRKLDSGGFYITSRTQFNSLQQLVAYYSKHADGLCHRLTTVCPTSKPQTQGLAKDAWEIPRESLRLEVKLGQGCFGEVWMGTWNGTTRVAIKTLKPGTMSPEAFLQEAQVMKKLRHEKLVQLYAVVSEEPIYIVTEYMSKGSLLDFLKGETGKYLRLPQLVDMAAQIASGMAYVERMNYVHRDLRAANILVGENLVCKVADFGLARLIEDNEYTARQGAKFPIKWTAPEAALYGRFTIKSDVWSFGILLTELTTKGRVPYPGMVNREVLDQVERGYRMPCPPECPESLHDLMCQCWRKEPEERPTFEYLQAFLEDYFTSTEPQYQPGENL

## CNC(=O)c1c(F)cccc1Nc1nc(Nc2cc3c(cc2OC)CCN3C(=O)CN(C)C)nc2[nH]ccc12 [GSK1838705A]
FAK autophosphorylation
  FAK autophosphorylation: not affected
[1]
  phosphorylation changes of FER (pY immunoprecipitation): phosphorylation changes of FER

## COc1cc2c(Oc3ccc(NC(=O)C4(C(=O)Nc5ccc(F)cc5)CC4)cc3F)ccnc2cc1OCCCN1CCOCC1 [foretinib]
[2]
  SRC autophosphorylation at Y419: did not decrease SRC autophosphorylation
A427 cells
  inhibition of A427 cell growth, clonogenic assay: inhibited A427 cell growth
FER
  FER inhibition, in vitro kinase assay: more potently inhibited by foretinib than by cabozantinib
[3]
  phosphorylation of histone H3 at S10: decreased phosphorylation of histone H3 at S10
AURKA
  AURKA inhibition, in vitro kinase assay: more potently inhibited by foretinib than by cabozantinib
SRC
  SRC inhibition, in vitro kinase assay: more potently inhibited by foretinib than by cabozantinib
FAK autophosphorylation
  FAK autophosphorylation: not affected
H1155 and A427 cells [4]
  drug-induced cell cycle changes: pronounced accumulation of cells in G2 phase
NSCLC cell lines
  effect on viability of NSCLC cell lines: much higher cellular activity compared to cabozantinib
SCLC cell lines
  effect on viability of SCLC cells: potently inhibited viability of MYC-amplified SCLC cells, but not SCLC cells without MYC amplification
H1155 and A427 cells [5]
  induction of apoptosis (PARP1 and caspase 3 cleavage, caspase 3/7): induced apoptosis
MEK1
  MEK1 inhibition, in vitro kinase assay: more potently inhibited by foretinib than by cabozantinib
AURKB
  AURKB inhibition, in vitro kinase assay: more potently inhibited by foretinib than by cabozantinib
[6]
  phosphorylation of pERK at T202/Y204: decreased phosphorylation of pERK
[1]
  phosphorylation changes of FER (pY immunoprecipitation): phosphorylation changes of FER

## COc1cc(Nc2ncc3c(n2)-c2ccc(Cl)cc2C(c2c(F)cccc2OC)=NC3)ccc1C(=O)O [alisertib]
H1155 cells
  decrease of H1155 viability on combining with FER and MEK1/2 inhibition: only in a minor decrease of viability

## OCCn1cc(-c2cnc3nnn(Cc4ccc5ncccc5c4)c3n2)cn1 [PF-04217903]
NSCLC cell lines
  effect on viability of NSCLC cell lines: little to no effects
SCLC cell lines
  effect on viability of SCLC cells: no effect on SCLC cells

## COc1cc2nccc(Oc3ccc(NC(=O)C4(C(=O)Nc5ccc(F)cc5)CC4)cc3)c2cc1OC [cabozantinib]
A427 cells
  inhibition of A427 cell growth, clonogenic assay: in contrast to cabozantinib
[7]
  inhibition of MET autophosphorylation: inhibited MET autophosphorylation
NSCLC cell lines
  effect on viability of NSCLC cell lines: little to no effects
SCLC cell lines
  effect on viability of SCLC cells: in contrast to cabozantinib
[6]
  phosphorylation of pERK at T202/Y204: in contrast to cabozantinib

## CC1(C)CNc2cc(NC(=O)c3cccnc3NCc3ccncc3)ccc21 [motesanib]
NSCLC cell lines
  effect on viability of NSCLC cell lines: little to no effects
SCLC cell lines
  effect on viability of SCLC cells: no effect on SCLC cells

## COc1cc2c(Oc3ccc(N(C(=O)C4(C(N)=O)CC4)c4ccc(F)cc4)cc3F)ccnc2cc1OCCCN1CCN(CCCN)CC1 [i-foretinib, N-(4-((7-(3-(4-(3-aminopropyl)piperazin-1-yl)propoxy)-6-methoxyquinolin-4-yl)oxy)-3-fluorophenyl)-N-(4-fluorophenyl)cyclopropane-1,1-dicarboxamide]
MET
  ability to bind and inhibit MET: retained their ability to bind and inhibit MET
